Assay results: ChEMBL document CHEMBL1152676, “Combretastatin-like chalcones as inhibitors of microtubule polymerization. Part 1: synthesis and biological evaluation of antivascular activity” (Bioorg Med Chem, 2009)
Activity calls are given as the source filed them. The calls are words filed in the database; no cut-off is given here.

How the values were obtained:
[1] = tested on: K562; experiment: Cell cycle arrest in human K562 cells assessed as accumulation at G0/G1 phase at 20 nM after 24 hrs by propidium iodide staining-based flow cytometry; format: functional
[2] = tested on: K562; experiment: Cell cycle arrest in human K562 cells assessed as accumulation at S phase at 20 nM after 24 hrs by propidium iodide staining-based flow cytometry; format: functional
[3] = tested on: K562; experiment: Cell cycle arrest in human K562 cells assessed as accumulation at G2/M phase at 20 nM after 24 hrs by propidium iodide staining-based flow cytometry; format: functional
[4] = Inhibition of tubulin assembly by Woods method
[5] = Displacement of [3H]colchicine from tubulin assessed as bound colchicine at […] incubated in dark for 2 hrs by scintillation spectroscopy
[6] = Inhibition of tubulin polymerization assessed as appearance of twisted and shorter tubulin by electron microscopy
[7] = tested on: HUVEC; experiment: Antivascular activity in HUVEC cells assessed as change in cell shape at 1 uM after 1 hr by fluorescent-labeled high molecular weight F-dextran permeability assay; format: functional, cell-based; conditions: Homo sapiens
[8] = tested on: K562; experiment: Antiproliferative activity against human K562 cells after 5 days by MTT assay; format: functional, cell-based
[9] = tested on: Vero; experiment: Binding affinity to tubulin in african green monkey Vero cells assessed as aberration of microtubule arrangement at 10 uM after 40 mins by immunohistochemistry; format: cell-based; conditions: Chlorocebus sabaeus
[10] = Inhibition of tubulin polymerization assessed as appearance of shorter and ring shaped tubulin by electron microscopy

SMILES	Activity [1]	Activity [2]	Activity [3]	IC50 [4]	Activity [5]	Activity [6]	Activity [7]	IC50 ([8]; Homo sapiens, K562, 120 h)	Activity [9]	IC50 ([8]; k562)	Activity [10]
COc1ccc(/C=C/C(=O)c2cc(OC)c(OC)c(OC)c2)cc1O	12%	12%	76%	620 nM	9%	Active	Active				
COc1ccc(/C=C/C(=O)c2cc(OC)c(OC)c(OC)c2)cc1OC	31%	25%	44%	> 25000 nM	62%			300 nM			
COc1cc(C(=O)/C(C)=C/c2cc(F)c(OC)c(F)c2)cc(OC)c1OC	4%	24%	72%	2400 nM	25%			50 nM			
COc1ccc(/C=C\c2cc(OC)c(OC)c(OC)c2)cc1O [COMBRETASTATIN A4]	2%	8%	90%	100 nM	8%						
COc1ccc(/C=C(\C)C(=O)c2cc(OC)c(OC)c(OC)c2)cc1F	3%	9%	88%	650 nM	6%			2 nM	Active		
COc1ccc(/C=C\c2cc(OC)c(OC)c(OC)c2)cc1OP(=O)(O)O							Active				
COc1ccc(C(=O)/C(C)=C/c2ccc(OC)c(OP(=O)(O)O)c2)cc1					12%		Active				
COc1cc(OC)c(/C=C/C(=O)c2cc(OC)c(OC)c(OC)c2)c(OC)c1	10%	18%	72%	12000 nM	46%			200 nM	Active		
COc1ccc(C(=O)/C=C/c2cc(F)c(OC)c(F)c2)c(OC)c1OC	51%	3%	46%	31000 nM				4800 nM			
COc1ccc(C(=O)/C=C/c2ccc(OC)c(OP(=O)([O-])[O-])c2)cc1.[Na+].[Na+]	22%	14%	64%	39000 nM						8 nM	
COc1ccc(/C=C/C(=O)c2ccc(OC)c(OC)c2)c(OC)c1	26%	27%	47%	18000 nM	42%			300 nM	Active		
COc1cc(C(=O)/C=C/c2ccc3c(c2)OCCO3)cc(OC)c1OC	27%	23%	50%	13000 nM	10%				Active		
CO/C(=C\c1cc(F)c(OC)c(F)c1)C(=O)c1cc(OC)c(OC)c(OC)c1	30%	15%	55%	1700 nM	41%		Active	360 nM			
CN(Cc1cnc2nc(N)nc(N)c2n1)c1ccc(C(=O)N[C@@H](CCC(=O)O)C(=O)O)cc1							inactive				
COc1ccc(/C=C(\C)C(=O)c2cc(OC)c(OC)c(OC)c2)cc1O	10%	7%	83%	460 nM	8%		Active		Active		Active
COc1ccc(/C=C/C(=O)c2ccc(OC)c(OC)c2OC)cc1O	32%	28%	40%	450 nM				10 nM			
CO/C(=C\c1ccc(OC)c(O)c1)C(=O)c1cc(OC)c(OC)c(OC)c1	4%	12%	84%	510 nM	5%		Active	1.5 nM	Active		
COc1cc(OC)c(C(=O)/C=C/c2ccc(OC)c(OC)c2OC)c(OC)c1	10%	16%	74%	15000 nM	27%			300 nM			
COc1ccc(C(=O)/C(C)=C/c2ccc(OC)c(OP(=O)([O-])[O-])c2)cc1.[Na+].[Na+]	21%	10%	69%	3100 nM						0.12 nM	
COc1ccc(OC)c(C(=O)/C(C)=C/c2ccc(N(C)C)cc2)c1	10%	8%	82%	10000 nM	2%			12 nM	Active		
COc1ccc(/C=C/C(=O)c2cc(OC)c(OC)c(OC)c2)cc1N	48%	33%	19%	2000 nM				10 nM			
CO/C(=C\c1ccc(OC)c(F)c1)C(=O)c1cc(OC)c(OC)c(OC)c1	41%	13%	46%	470 nM	8%		Active	3.7 nM			
COc1ccc(C(=O)/C=C/c2ccc(OC)c(OP(=O)(O)O)c2)cc1					83%		Active				
